In US11851409B2, “Deuterated benzylaminopyrimidinedione derivatives and use thereof” (QINGDAO JI'AO PHARMACEUTICAL TECHNOLOGY CO., LTD, priority 2019, dated 2023):

Assay: Pharmacokinetic test in SD rats
Type: in vivo
Settings: male, plasma, rat, iv, 1 mg/kg; for Vd: read-out: Vss
Method: Experimental animals: 4 healthy adult male SD rats (purchased from Hunan SJA Laboratory Animal Co., Ltd) were divided into two groups, […].
Drug preparation: a certain amount of the compound of the present disclosure or MYK461 is weighted, and 10% DMSO, 10% Kolliphor HS15 and 80% saline are added to prepare the compound solution with target concentration.
Administration and sample collection: the animals fasted for 12 h before administration, ate in 3 h after administration, and were administered by intravenous administration (IV, 1 mg/kg) through the posterior limb vein of SD rats and orally intragastric administration (PO, 5 mg/kg), respectively. Then, blood samples were collected from the tail vein of rats at time points of 0, 0.083, 0.25, 0.5, 1, 2, 4, 6, 8, and 24 h, respectively, and the blood volume was about 200-400 μL/time point. After collecting whole blood at each time point, the blood samples were placed in K2EDTA anticoagulant test tubes, which were placed in an incubator with ice packs for preservation. All the samples were centrifuged at 4600 r/min at 4° C. for 5 min within 15 min to obtain plasma. The concentrations of different compounds in rat plasma after administration were determined by LC/MS/MS method. Pharmacokinetic parameters were calculated according to the drug concentration-time curve.

AUC(0-inf) [µg·h/mL] | AUC(0-t) [µg·h/mL] | Cmax [µg/mL] | MRT inf [h] | Tmax [min] | clearance [L/h/kg] | half-life [h] | Vd [L/kg] | Structure (SMILES)
6.83 | 3.67 | 0.883 | 31.1 | 4.98 | 0.146 | 22.6 | 4.56 | [2H]c1c([2H])c([2H])c([C@H](C)Nc2cc(=O)n(C(C)C)c(=O)[nH]2)c([2H])c1[2H] [Example 1, (S)-3-isopropyl-6-((1-(phenyl-d5)ethyl)amino)pyrimidine-2,4(1H,3H)-dione]
4.67 | 3.29 | 0.643 | 18.8 | 4.98 | 0.214 | 13.9 | 4.03 | [2H]c1ccc([C@H](C)Nc2cc(=O)n(C(C)C)c(=O)[nH]2)cc1 [Example 2, (S)-3-isopropyl-6-((1-(phenyl-4-d)ethyl)amino)pyrimidine-2,4(1H,3H)-dione]
5.69 | 4.45 | 0.982 | 14.8 | 4.98 | 0.176 | 11.3 | 2.6 | [2H]C([2H])([2H])C(n1c(=O)cc(N[C@@H](C)c2ccccc2)[nH]c1=O)C([2H])([2H])[2H] [Example 5, (S)-6-((1-phenylethyl)amino)-3-(propane-2-yl-1,1,1,3,3,3-d6)pyrimidine-2,4 (1H,3H)-dione]
3.09 | 2.42 | 0.393 | 15.1 | 4.98 | 0.323 | 11.6 | 4.87 | CC(C)n1c(=O)cc(N[C@@H](C)c2ccccc2)[nH]c1=O [MYK461, reference compound]
